Measurements from patent US6593301B1, “Use of steroidal saponins for the prophylaxis or treatment of dementia, and novel steroidal saponin compounds” (Institute of Radiation Medicine, priority 2000, dated 2003).
Where two headings read alike, the source gives them in different places.

Key:
[1] = system: cerebral basilar artery; experiment: Experiment on cerebral basilar artery (isolated artery on transducer, KCl as vasoconstrictor); conditions: for Effect on the basilar artery (dilation): 50 μl solution added to the bath
Description: Take 50 μl solutions to dissolved in 5 ml saline again. (2). Remove the cerebrum and cerebellum from the fresh brain, and get the middle part of the basilar artery (3). Adjust the transducer and amplifier to make pointer return to zero (4). Hang the basilar artery on the transducer and immerse it in the bath.

[2] = Scavenging effects on hydroxyl free radicals (Fenton reaction, ESR)
[3] = system: rat thoracic aorta; conditions: 0.04 mM
From the text: Take thoracic aorta from rat, remove the connective tissue and blood, immerse the aorta into the Krebs-Henselelt liquid and ventilate oxygen, hang the aorta on the transducer, and assay its radial tension.

[4] = system: cerebral blood flow of rat; conditions: for Mean of rCBF / Rate of rCBF increase / rCBF Rat 1 / rCBF Rat 2 / rCBF Rat 3 / rCBF Rat 4: 50 μg/Kg intravenous
Description: Method: Hydrogen-clearing method
Instrument: LS-III Blood Flow Meter
1. Anesthetize the rat with 10% chloral hydrate, separate the general vein of thigh and intubate to prepare to inject Compound III.
2. Open a window in the parietal lobe of dermal epithelium with cranial drill and lay up hydrogen electrode.
3. After operation, collect the animal with the Blood Follow Meter and computer, steady for 30 minutes and begin to measure the rCBF (regional cerebral blood flow).

[5] = system: nicotinic receptors (SY-SH5Y human neuroblastoma cell); conditions: SY-SH5Y cells treated three days, 1 μM up to 100 μM
Description: (§1) In the experiments, we used two different cell lines, SY-SH5Y and M10. SY-SH5Y is human neuroblastoma cell which expresses natural nicotinic and muscarinic receptors, and M10 cell expresses the recombinant a4b2 subtype of chicken nicotinic receptor. We treated both cell lines with Compound III for three days with different concentrations from 1 μM up to 100 μM, and measured the amount of nAChRs.

[6] = system: recombinant a4b2 subtype of chicken nicotinic receptor (M10 cells); conditions: M10 cells treated three days, 1 μM up to 100 μM
Description: as §1

[7] = system: rat hippocampus neuronal cells; experiment: Proliferation of rat hippocampus neuronal cells (MTT staining, OD); assay type: cell-based; conditions: 7 days
Description: 1. Get hippocampus neuronal cells from rat embryo and do preliminary cell culture.
2. Incubate the cells for 7 days at different concentration (3 or 5 parallel holes for each group).
3. Do MTT staining and measure OD value.

SMILES: CC1=C(CC[C@H](C)CO[C@@H]2O[C@H](CO)[C@@H](O)[C@H](O)[C@H]2O)O[C@H]2C[C@H]3[C@@H]4CC[C@@H]5C[C@@H](O[C@@H]6O[C@H](CO)[C@H](O)[C@H](O)[C@H]6O[C@@H]6O[C@H](CO)[C@@H](O)[C@H](O)[C@H]6O)CC[C@]5(C)[C@H]4CC[C@]3(C)[C@@H]12 [Compound I, (25S)-26-O-β-D-glucopyranosyl-5β-furost-20(22)-ene-3β,26-diol-3-O-β-D-glucopyranosyl(1→2)-β-D-galactopyranoside]
- Effect on the basilar artery (dilation) [1]: no obvious effect
- Scavenging rate ([2]; 5 mg/ml, ESR, Fenton reaction): 23.3%
- Scavenging of hydroxyl free radicals produced by Fenton reaction (in words) ([2]; Fe^2++H2O2): could scavenge

SMILES: CC1=C(CC[C@H](C)CO[C@@H]2O[C@H](CO)[C@@H](O)[C@H](O)[C@H]2O)O[C@H]2C[C@H]3[C@@H]4CC[C@@H]5C[C@@H](O[C@@H]6O[C@H](CO)[C@@H](O)[C@H](O)[C@H]6O[C@@H]6O[C@H](CO)[C@@H](O)[C@H](O)[C@H]6O)CC[C@]5(C)[C@H]4CC[C@]3(C)[C@@H]12 [Compound II, (25S)-26-O-β-D-glucopyranosyl-5β-furost-20(22)-ene-3β,26-diol-3-O-β-D-glucopyranosyl(1→2)-β-D-glucopyranoside]
- Effect on the basilar artery (dilation) [1]: no obvious effect
- Scavenging rate ([2]; 5 mg/ml, ESR, Fenton reaction): 40.0%
- Scavenging of hydroxyl free radicals produced by Fenton reaction (in words) ([2]; Fe^2++H2O2): could scavenge

SMILES: C[C@@H](CCC1(O)O[C@H]2C[C@H]3[C@@H]4CC[C@@H]5C[C@@H](O[C@@H]6O[C@H](CO)[C@H](O)[C@H](O)[C@H]6O[C@@H]6O[C@H](CO)[C@@H](O)[C@H](O)[C@H]6O)CC[C@]5(C)[C@H]4CC[C@]3(C)[C@H]2[C@@H]1C)CO[C@@H]1O[C@H](CO)[C@@H](O)[C@H](O)[C@H]1O (stereo partly drawn) [Compound III, (25S)-26-β-D-glucopyranosyl-22-hydroxy-5β-furost-3β,26-diol-3-0-β-D-glucopyranosyl(1→2)-β-D-galactopyranoside]
- Effect on the basilar artery (dilation) [1]: dilated slightly
- Contraction of the basilar artery when adding the vasoconstrictor KCl ([1]; after 50 μl compound added to the bath): did not contract again
- Dilation of cerebral vascular and resistance to contraction caused by vasoconstrictor ([1]; at 10^−5 g/ml (0.01 mM)): could dilate cerebral vascular and resist the contraction caused by vasoconstrictor
- Effective concentration compared with positive Ligustrazine ([1]; same experimental conditions): two orders of magnitude lower
- Inhibition of contraction of rat aorta caused by KCl [3]: could restrain the contraction
- Mean of rCBF ([4]; 1 min): 141562.5 µL/min/mg
- Rate of rCBF increase ([4]; 1 min): 7.806%
- rCBF Rat 1 ([4]; 1 min): 133300 µL/min/mg
- rCBF Rat 2 ([4]; 1 min): 150050 µL/min/mg
- rCBF Rat 3 ([4]; 1 min): 139550 µL/min/mg
- rCBF Rat 4 ([4]; 1 min): 143350 µL/min/mg
- Mean of rCBF ([4]; 10 min): 149785 µL/min/mg
- Rate of rCBF increase ([4]; 10 min): 14.07%
- rCBF Rat 1 ([4]; 10 min): 147990 µL/min/mg
- rCBF Rat 2 ([4]; 10 min): 143410 µL/min/mg
- rCBF Rat 3 ([4]; 10 min): 162100 µL/min/mg
- rCBF Rat 4 ([4]; 10 min): 145640 µL/min/mg
- Mean of rCBF ([4]; 20 min): 148405 µL/min/mg
- Rate of rCBF increase ([4]; 20 min): 13.02%
- rCBF Rat 1 ([4]; 20 min): 158460 µL/min/mg
- rCBF Rat 2 ([4]; 20 min): 136330 µL/min/mg
- rCBF Rat 3 ([4]; 20 min): 177590 µL/min/mg
- rCBF Rat 4 ([4]; 20 min): 121240 µL/min/mg
- Mean of rCBF ([4]; 30 min): 163497.5 µL/min/mg
- Rate of rCBF increase ([4]; 30 min): 24.51%
- rCBF Rat 1 ([4]; 30 min): 164610 µL/min/mg
- rCBF Rat 2 ([4]; 30 min): 182960 µL/min/mg
- rCBF Rat 3 ([4]; 30 min): 171420 µL/min/mg
- rCBF Rat 4 ([4]; 30 min): 135000 µL/min/mg
- Mean of rCBF ([4]; 40 min): 164670 µL/min/mg
- Rate of rCBF increase ([4]; 40 min): 25.4%
- rCBF Rat 1 ([4]; 40 min): 176900 µL/min/mg
- rCBF Rat 2 ([4]; 40 min): 202460 µL/min/mg
- rCBF Rat 3 ([4]; 40 min): 165940 µL/min/mg
- rCBF Rat 4 ([4]; 40 min): 113380 µL/min/mg
- Mean of rCBF ([4]; 50 min): 166147.5 µL/min/mg
- Rate of rCBF increase ([4]; 50 min): 26.53%
- rCBF Rat 1 ([4]; 50 min): 176770 µL/min/mg
- rCBF Rat 2 ([4]; 50 min): 193570 µL/min/mg
- rCBF Rat 3 ([4]; 50 min): 163080 µL/min/mg
- rCBF Rat 4 ([4]; 50 min): 131170 µL/min/mg
- Increase of the rCBF of rat ([4]; 50 μg/kg in vivo (text summary, time not stated)): 26.5%
- Hemolysis ([4]; administered intravenously at the effective concentration (50 μg/kg)): no hemolysis
- Number of nAChRs [5]: significantly up-regulate
- Number of nAChRs [6]: significantly up-regulate
- Mean of OD ([7]; 0.1 μg/ml): 0.0773
- Proliferation rate ([7]; 0.1 μg/ml): 23.88%
- Mean of OD ([7]; 1 μg/ml): 0.0663
- Proliferation rate ([7]; 1 μg/ml): 6.25%
- Mean of OD ([7]; 10 μg/ml): 0.0860
- Proliferation rate ([7]; 10 μg/ml): 37.82%
- Mean of OD ([7]; 50 μg/ml): 0.0807
- Proliferation rate ([7]; 50 μg/ml): 29.33%
- Mean of OD ([7]; 100 μg/ml): 0.0750
- Proliferation rate ([7]; 100 μg/ml): 20.19%
- Mean of OD ([7]; 500 μg/ml): 0.0903
- Proliferation rate ([7]; 500 μg/ml): 44.71%
- Mean of OD ([7]; 1000 μg/ml): 0.0673
- Proliferation rate ([7]; 1000 μg/ml): 7.853%
- Inhibitory rate (hydroxyl free radicals) [2]: 56.7%
- Scavenging effect relative to the other compounds [2]: most effective
- Scavenging of hydroxyl free radicals produced by Fenton reaction (in words) [2]: could scavenge
- Scavenging rate [2]: 56.7%

SMILES: COC1(CC[C@H](C)CO[C@@H]2O[C@H](CO)[C@@H](O)[C@H](O)[C@H]2O)O[C@H]2C[C@H]3[C@@H]4CC[C@@H]5C[C@@H](O[C@@H]6O[C@H](CO)[C@H](O)[C@H](O)[C@H]6O[C@@H]6O[C@H](CO)[C@@H](O)[C@H](O)[C@H]6O)CC[C@]5(C)[C@H]4CC[C@]3(C)[C@H]2[C@@H]1C (stereo partly drawn) [Compound IV, (25S)-26-0-β-D-glucopyranosyl-22-methoxy-5β-furost-3β,26-diol-3-0-β-D-glucopyranosyl(1→2)-β-D-galactopyranoside]
- Effect on the basilar artery (dilation) [1]: no obvious effect
- Scavenging of hydroxyl free radicals produced by Fenton reaction (in words) [2]: could scavenge
- Scavenging rate [2]: 33.3%
